Measurements published in US20070049564A1 (Wyeth, priority 2005, published 2007).
Read-outs that look alike come from different tables or passages of the source.

Key:
S. aureus GC 2216 = assay: MIC, broth microdilution; settings: Staphylococcus aureus, GC2216, S. aureus GC 2216
S. pneumoniae+ GC 4465 = assay: MIC, broth microdilution; settings: Streptococcus pneumoniae, S. pneumoniae+ GC 4465
Procedure: (§1) Antimicrobial susceptibility testing. The in vitro activities of the antibiotics are determined by the broth microdilution method as recommended by the National Committee for Clinical Laboratory Standards (NCCLS) (1). Mueller-Hinton II broth (MHBII)(BBL Cockeysville, Md.) is the medium employed in the testing procedures. Microtiter plates containing serial dilutions of each antimicrobial agent are inoculated with each organism to yield the appropriate density (10^5 CFU/ml) in a 100 μl final volume. The plates are incubated for 18-22 hours at 35° C. in ambient air.
Representative compounds were first incubated in mouse serum for an hour prior to the in vitro testing against a panel of selected gram-positive and gram-negative bacteria strains. All compounds were also pre-incubated in water for an hour prior to testing as control.

E. coli GC 2232 = assay: MIC, broth microdilution; settings: Escherichia coli, GC2232, E. coli GC 2232
E. faecalis GC 4555 = assay: MIC, broth microdilution; settings: Enterococcus faecalis, GC4555, E. faecalis GC 4555
S. pneumoniae* GC 4465 = assay: MIC, broth microdilution; settings: Streptococcus pneumoniae, S. pneumoniae* GC 4465
Procedure: as §1
Representative compounds were first incubated in mouse serum for an hour prior to the in vitro testing against a panel of selected gram-positive and gram-negative bacteria strains. All compounds were also pre-incubated in water for an hour prior to testing as control. Representative compounds of Formula I were incubated in human serum prior to MIC determination.

E. coli GC 4559 = assay: MIC, broth microdilution; settings: Escherichia coli, GC4559, E. coli GC 4559
S. agalactiae GC 4564 = assay: MIC, broth microdilution; settings: Streptococcus agalactiae, GC4564, S. agalactiae GC 4564
E. coli GC 2234 = assay: MIC, broth microdilution; settings: Escherichia coli, GC2234, E. coli GC 2234
E. coli GC 2236 = assay: MIC, broth microdilution; settings: Escherichia coli, GC2236, E. coli GC 2236
S. typhimurium GC 2172 = assay: MIC, broth microdilution; settings: Salmonella enterica, TYPHIMURIUM, S. typhimurium GC 2172
E. faecalis GC 2242 = assay: MIC, broth microdilution; settings: Enterococcus faecalis, GC2242, E. faecalis GC 2242
S. aureus GC 4536 = assay: MIC, broth microdilution; settings: Staphylococcus aureus, GC4536, S. aureus GC 4536
S. aureus GC 6466 = assay: MIC, broth microdilution; settings: Staphylococcus aureus, GC6466, S. aureus GC 6466
Procedure: Antimicrobial susceptibility testing. The in vitro activities of the antibiotics are determined by the broth microdilution method as recommended by the National Committee for Clinical Laboratory Standards (NCCLS) (1). Mueller-Hinton II broth (MHBII)(BBL Cockeysville, Md.) is the medium employed in the testing procedures. Microtiter plates containing serial dilutions of each antimicrobial agent are inoculated with each organism to yield the appropriate density (10^5 CFU/ml) in a 100 μl final volume. The plates are incubated for 18-22 hours at 35° C. in ambient air. […] Standard Pharmacological Test Procedures
Presented in Tables I-XIII are representative compounds of Formula I which were evaluated against a panel of 40 selected gram-positive and gram-negative bacteria strains by pre-incubation in water, mouse serum or human serum. Representative compounds were first incubated in mouse serum for an hour prior to the in vitro testing against a panel of selected gram-positive and gram-negative bacteria strains. All compounds were also pre-incubated in water for an hour prior to testing as control. Representative compounds of Formula I were incubated in human serum prior to MIC determination.

E. coli GC 2231 = assay: MIC, broth microdilution; settings: Escherichia coli, GC2231, E. coli GC 2231
S. pyogenes GC 4563 = assay: MIC, broth microdilution; settings: Streptococcus pyogenes, GC4563, S. pyogenes GC 4563
E. coli GC 2235 = assay: MIC, broth microdilution; settings: Escherichia coli, GC2235, E. coli GC 2235
Staph. = assay: Range of MIC for Staph. strains, including MRSA; settings: Staphylococcus aureus, MRSA
E. faecium GC 4556 = assay: MIC, broth microdilution; settings: Enterococcus faecium, GC4556, E. faecium GC 4556

Measured: MIC

CCCN(CC(=O)Nc1cc(N(C)C)c2c(c1O)C(=O)C1=C(O)[C@]3(O)C(=O)C(C(N)=O)=C(O)[C@@H](N(C)C)[C@@H]3C[C@@H]1C2)C(=O)OCC [Example 15, ethyl 2-{[(5aR,6aS,7S,10aS)-9-(aminocarbonyl)-4,7-bis(dimethylamino)-1,8,10a,11-tetrahydroxy-10,12-dioxo-5,5a,6,6a,7,10,10a,12-octahydrotetracen-2-yl]amino}-2-oxoethyl(propyl)carbamate]
4 µg/mL: S. aureus GC 2216; Water pre-incubation | S. pneumoniae+ GC 4465; Mouse Serum pre-incubation | S. pneumoniae+ GC 4465; Water pre-incubation | E. faecalis GC 4555; Mouse Serum pre-incubation | S. aureus GC 4536; Water pre-incubation | S. aureus GC 6466; Water pre-incubation
2 to 16 µg/mL: Staph.; read-out: Range of MIC, Staph (Mouse Serum)
32 µg/mL: E. coli GC 2235; Mouse Serum pre-incubation | E. coli GC 2235; Water pre-incubation
64 µg/mL: E. coli GC 2236; Water pre-incubation
4 to 16 µg/mL: Staph.; read-out: Range of MIC, Staph (Water)
2 µg/mL: S. aureus GC 2216; Mouse Serum pre-incubation | S. pneumoniae* GC 4465; Mouse Serum pre-incubation | S. pneumoniae* GC 4465; Water pre-incubation | S. aureus GC 4536; Mouse Serum pre-incubation | S. aureus GC 6466; Mouse Serum pre-incubation | S. pyogenes GC 4563; Mouse Serum pre-incubation | S. pyogenes GC 4563; Water pre-incubation
8 µg/mL: E. faecalis GC 4555; Water pre-incubation | S. agalactiae GC 4564; Mouse Serum pre-incubation | S. agalactiae GC 4564; Water pre-incubation | E. faecalis GC 2242; Mouse Serum pre-incubation | E. faecalis GC 2242; Water pre-incubation | E. faecium GC 4556; Mouse Serum pre-incubation | E. faecium GC 4556; Water pre-incubation
> 64 µg/mL: E. coli GC 2232; Mouse Serum pre-incubation | E. coli GC 2232; Water pre-incubation | E. coli GC 4559; Mouse Serum pre-incubation | E. coli GC 4559; Water pre-incubation | E. coli GC 2234; Mouse Serum pre-incubation | E. coli GC 2234; Water pre-incubation | E. coli GC 2236; Mouse Serum pre-incubation | S. typhimurium GC 2172; Mouse Serum pre-incubation | S. typhimurium GC 2172; Water pre-incubation | E. coli GC 2231; Mouse Serum pre-incubation | E. coli GC 2231; Water pre-incubation
